In paper PMC7285002, “Enhanced Oral Bioavailability of the Pharmacologically Active Lignin Magnolol via Zr-Based Metal Organic Framework Impregnation” (Pharmaceutics, 2020):
Like-named read-outs stand apart in the source and are kept apart here.

Columns and labels:
[1] = Oral bioavailability / pharmacokinetic study (serum magnolol by HPLC); assay type: in vivo; settings: Sprague-Dawley (SD), rat, 100 mg kg^−1, male SD rats; for AUC(0-t): read-out: AUC0–720 (converted); for half-life: male, 100 mg/kg
Procedure: (§1) The determination of the bioavailability of magnolol and its tissue distribution to the brain, liver, and kidney was done according to the method of Ding et al. (2018), Higashi (2015), Lin et al. (2011), and Kotani et al. (2005).
For the pharmacokinetic study, male SD rats were randomly divided into 4 groups (n = 3). […] Blood samples (approximately 200 to 250 µL) were collected at predetermined time points (15, 30, 60, 120, 180, 240, 480, and 720 min) and allowed to clot and centrifuged at 4000 rpm at 4 °C for 5 min to obtain the serum. The obtained sera were treated with equal amount of acetonitrile and then centrifuged again to obtain the protein-free sera.
(§2) Samples were reconstituted with acetonitrile prior to HPLC analysis. The samples were injected into the HPLC (n = 3). The quantity of magnolol was computed using a standard calibration curve.

[2] = system: female Sprague Dawley rats; assay: Acute oral toxicity (OECD 425, limit test); assay type: in vivo
Procedure: Animal toxicity test was done in accordance with the Organization for Economic Cooperation and Development guidelines for testing chemical compounds using the up and down method (OECD procedure 425). Prior to dosing, 2 mL of blood was extracted through tail clipping and was submitted for alanine aminotransferase (ALT) and creatinine level determinations for signs of liver and kidney damages, respectively. […] In cases where the first animal survived, an additional four rats were subjected to the same dose. […] An additional rat was administered with the solvent only to compare the variation in the animal species. Test animals that survived in the 14-day observation were euthanized in a carbon dioxide chamber followed by the harvesting of blood, liver and kidney of all test animals. The blood was once again submitted for ALT and creatinine level determination. The organs were submitted for tissue mounting and histopathological evaluation.

[3] = low bioavailability of magnolol, stated in the abstract without reference; cited from earlier work
[4] = Tissue distribution of unconjugated magnolol; assay type: in vivo; settings: Sprague-Dawley (SD), rat, 1 h after oral 50 mg kg^−1, male SD rats
Procedure: as §1
After one hour of administration, the animals were euthanized in a carbon dioxide chamber and their organs (brain, liver, and kidney) were collected. The organs were weighed and homogenized in 10 mL of acetonitrile, and centrifuged at 10,000 rpm for 10 min. The supernatant was dried under reduced pressure.
as §2

C=CCc1ccc(O)c(-c2cc(CC=C)ccc2O)c1 [Magnolol, 4-Allyl-2-(5-allyl-2-hydroxy-phenyl)phenol]
AUC(0-inf) ([1]; IP (intraperitoneal route)): 66900 ng·h/mL
Cmax ([1]; IP (intraperitoneal route)): 5100 ± 650 ng/mL
Tmax ([1]; IP (intraperitoneal route)): 64.1 min
AUC(0-t) ([1]; IP (intraperitoneal route)): 43000 ng·h/mL
AUC(0-inf) ([1]; PO (oral route)): 15100 ng·h/mL
Cmax ([1]; PO (oral route)): 2570 ± 260 ng/mL
Tmax ([1]; PO (oral route)): 55.8 min
AUC(0-t) ([1]; PO (oral route)): 13700 ng·h/mL
half-life ([1]; ip, IP (intraperitoneal route), read-out: Abs T1/2 (absorption half-life)): 17.1 ± 3.63 min
half-life ([1]; ip, IP (intraperitoneal route), read-out: T1/2 (elimination half-life)): 461 ± 37.4 min
half-life ([1]; po, PO (oral route), read-out: Abs T1/2 (absorption half-life)): 23.3 ± 3.16 min
half-life ([1]; po, PO (oral route), read-out: T1/2 (elimination half-life)): 100 ± 20.4 min
survival after limit dose ([2]; 2000 mg kg^−1 oral, female SD rats, 14 days): All test animals survived
mean serum ALT level, before vs after administration ([2]; 2000 mg kg^−1 oral, paired t-test): no significant difference
median lethal dose (LD50) ([2]; oral gavage, female SD rats, 14-day observation, assumed from limit test): greater than 2000 mg kg^−1
bioavailability [3]: 4–5%
concentration at 1 h ([4]; brain, read-out: mean magnolol concentration, Brain): 374 ± 22 ng/g
concentration at 1 h ([4]; kidney, read-out: mean magnolol concentration, Kidneys): 3740 ± 890 ng/g
concentration at 1 h ([4]; liver, read-out: mean magnolol concentration, Liver): 790 ± 180 ng/g
